The values below come from ChEMBL document CHEMBL1145006 (J Med Chem, 2003).

The target of test [1] is Somatostatin receptor type 4 (Homo sapiens, UniProt P31391). The experiment in a line: Binding affinity towards human Somatostatin receptor type 4 (sst4) using Tyr11-[125I]-SRIF as radioligand was determined in CHO cells. Type of test: cell-based. Conditions: for Log Ki: cho.
The target in test [2] is Somatostatin receptor type 5 (Homo sapiens, UniProt P35346). The experiment in a line: Binding affinity towards human Somatostatin receptor type 5 (sst5) using Tyr11-[125I]-SRIF as radioligand was determined in COS cell. Type of test: cell-based.
Chain of Somatostatin receptor type 5 (P35346 whole entry): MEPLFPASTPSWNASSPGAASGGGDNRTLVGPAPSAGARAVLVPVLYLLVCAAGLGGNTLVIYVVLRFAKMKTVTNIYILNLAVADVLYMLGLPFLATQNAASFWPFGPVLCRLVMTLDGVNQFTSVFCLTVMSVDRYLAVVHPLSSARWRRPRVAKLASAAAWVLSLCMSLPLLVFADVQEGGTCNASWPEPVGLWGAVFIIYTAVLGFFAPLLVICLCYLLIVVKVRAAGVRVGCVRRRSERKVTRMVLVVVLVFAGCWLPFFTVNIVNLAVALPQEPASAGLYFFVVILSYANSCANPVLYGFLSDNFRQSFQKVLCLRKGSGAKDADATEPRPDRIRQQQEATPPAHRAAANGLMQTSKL
Test [3] has as its target Somatostatin receptor type 1 (Homo sapiens, UniProt P30872). The experiment in a line: Binding affinity towards human Somatostatin receptor type 1 (sst1) using Tyr11-[125I]-SRIF as radioligand was determined in CHO cells. Type of test: cell-based.
Test [4] has as its target Somatostatin receptor type 3 (Homo sapiens, UniProt P32745). The experiment in a line: Binding affinity towards human Somatostatin receptor type 3 (sst3) using Tyr11-[125I]-SRIF as radioligand was determined in CHO cells. Type of test: cell-based.
The target in test [5] is Somatostatin receptor type 2 (Homo sapiens, UniProt P30874). In words: Binding affinity towards human Somatostatin receptor type 2 (sst2) using Tyr11-[125I]-SRIF as radioligand was determined in CHO cells. Type of test: cell-based.
Chain of Somatostatin receptor type 2 (P30874 whole entry): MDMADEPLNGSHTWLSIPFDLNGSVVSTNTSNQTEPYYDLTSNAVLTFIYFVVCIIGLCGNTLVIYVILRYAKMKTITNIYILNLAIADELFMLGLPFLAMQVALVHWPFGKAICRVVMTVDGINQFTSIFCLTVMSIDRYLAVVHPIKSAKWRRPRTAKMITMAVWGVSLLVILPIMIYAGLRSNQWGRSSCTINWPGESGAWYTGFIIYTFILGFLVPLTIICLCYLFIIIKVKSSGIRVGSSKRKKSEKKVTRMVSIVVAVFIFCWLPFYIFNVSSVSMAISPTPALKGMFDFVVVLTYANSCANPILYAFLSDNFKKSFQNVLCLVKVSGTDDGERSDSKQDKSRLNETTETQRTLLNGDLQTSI
The species named for test [6] is Rattus norvegicus. The experiment in a line: In vitro inhibition of GHRH induced GH release in primary cultures of rat pituitary cells. The settings on record: Pituitary gland cell. Type of test: functional, cell-based.

Starred links: 1 amine or outer side, 2 acyl side, 3 side chain; linkers in the order of their positions; H or OH if unused. Positions of bridges follow the written chain, without caps; N, C: chain ends. Non-standard residues stand in square brackets, D forms with d. Residues, ends and D or L forms follow the SMILES beside them. Groups on a side chain read outwards from the residue. *: point of attachment. Ethylenediamine = C(CN[*:2])N[*:1]; Hyp = O=C(O)[C@@H]1C[C@@H](O)CN1; Phg = N[C@H](C(=O)O)c1ccccc1; CO = O=C([*:1])[*:2]; Bn = c1ccc(C*)cc1 Some results are limits rather than exact numbers.

Chain of Somatostatin receptor type 4 (P31391 whole entry): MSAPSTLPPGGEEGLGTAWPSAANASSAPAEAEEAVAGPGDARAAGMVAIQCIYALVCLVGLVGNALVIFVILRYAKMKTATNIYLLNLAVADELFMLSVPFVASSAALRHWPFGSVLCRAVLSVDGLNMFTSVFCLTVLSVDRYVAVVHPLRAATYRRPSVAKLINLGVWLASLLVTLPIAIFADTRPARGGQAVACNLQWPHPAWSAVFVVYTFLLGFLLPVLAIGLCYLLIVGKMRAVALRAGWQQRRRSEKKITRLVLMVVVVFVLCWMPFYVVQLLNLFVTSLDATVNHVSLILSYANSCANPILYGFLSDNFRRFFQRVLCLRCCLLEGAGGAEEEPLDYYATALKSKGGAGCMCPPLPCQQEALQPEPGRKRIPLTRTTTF
Chain of Somatostatin receptor type 1 (P30872 whole entry): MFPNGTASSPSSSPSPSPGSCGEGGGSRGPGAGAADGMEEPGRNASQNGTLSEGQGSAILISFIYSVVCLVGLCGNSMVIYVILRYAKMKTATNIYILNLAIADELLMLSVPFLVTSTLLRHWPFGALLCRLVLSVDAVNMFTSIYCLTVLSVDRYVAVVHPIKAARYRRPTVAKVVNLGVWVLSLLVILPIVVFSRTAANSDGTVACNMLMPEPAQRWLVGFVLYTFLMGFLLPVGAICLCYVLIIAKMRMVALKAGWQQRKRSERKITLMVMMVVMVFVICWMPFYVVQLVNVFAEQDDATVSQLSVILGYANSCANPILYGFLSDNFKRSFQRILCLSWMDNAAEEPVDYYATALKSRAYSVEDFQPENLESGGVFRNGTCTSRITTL
Chain of Somatostatin receptor type 3 (P32745 whole entry): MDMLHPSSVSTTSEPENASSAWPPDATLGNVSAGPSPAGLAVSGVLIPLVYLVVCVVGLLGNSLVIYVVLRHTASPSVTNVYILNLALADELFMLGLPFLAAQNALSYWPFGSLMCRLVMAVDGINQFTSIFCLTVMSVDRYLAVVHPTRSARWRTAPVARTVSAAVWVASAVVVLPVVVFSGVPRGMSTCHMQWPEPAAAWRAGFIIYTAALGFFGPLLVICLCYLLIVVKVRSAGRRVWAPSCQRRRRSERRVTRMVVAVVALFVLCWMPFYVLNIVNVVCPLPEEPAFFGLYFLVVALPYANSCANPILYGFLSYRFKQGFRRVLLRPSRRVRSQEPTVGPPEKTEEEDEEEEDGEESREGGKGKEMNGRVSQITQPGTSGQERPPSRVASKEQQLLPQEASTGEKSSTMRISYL

For the compound `C[C@H](N)C(=O)NCC(=O)N[C@H]1CSSC[C@@H](C(N)=O)NC(=O)[C@H](CO)NC(=O)[C@H](C)NC(=O)[C@H](Cc2ccccc2)NC(=O)[C@H]([C@@H](C)O)NC(=O)[C@H](CCCCN)NC(=O)[C@H](Cc2c[nH]c3ccccc23)NC(=O)[C@H](Cc2ccccc2)NC(=O)[C@H](Cc2ccccc2)NC(=O)[C@H](CC(N)=O)NC(=O)[C@H](CCCCN)NC1=O` (H-AGCKNFFWKTFASC-NH2; disulfide 3-14), the Log Ki in test [1] is > -9.2. For the same compound, the Ki is 0.398 nM in test [2], 0.501 nM in test [3], 0.631 nM in test [4] and 1.26 nM in test [5].
As to `C[C@H](N)C(=O)NCC(=O)N[C@H]1CSSC[C@@H](C(N)=O)NC(=O)[C@H](C)NC(=O)[C@H]([C@@H](C)O)NC(=O)[C@H](Cc2ccccc2)NC(=O)[C@H]([C@@H](C)O)NC(=O)[C@H](CCCCN)NC(=O)[C@H](Cc2c[nH]c3ccccc23)NC(=O)[C@H](Cc2ccccc2)NC(=O)[C@H](Cc2ccccc2)NC(=O)[C@H](CC(N)=O)NC(=O)[C@H](CCCCN)NC1=O` (H-AGCKNFFWKTFTAC-NH2; disulfide 3-14), in test [1], the Log Ki is > -10. Besides, the Ki is 0.794 nM in test [2], 0.158 nM in test [3], 0.631 nM in test [4] and 0.0794 nM in test [5].
Regarding `NCCCC[C@@H]1NC(=O)[C@@H](Cc2c[nH]c3ccccc23)NC(=O)[C@H](Cc2ccccc2)NC(=O)[C@@H]2C[C@@H](OC(=O)NCCN)CN2C(=O)[C@H](Cc2ccccc2)NC(=O)[C@H](Cc2ccc(OCc3ccccc3)cc2)NC1=O` (cyclo(F[Hyp]([CO-Ethylenediamine])F[dW]KY(Bn))), the Ki in test [1] was 501 nM; in test [2] it was 0.398 nM; in test [3], 3.98 nM; in test [4], 0.794 nM; in test [5] it was 2 nM.
For `C[C@@H](O)[C@@H]1NC(=O)[C@H](CCCCN)NC(=O)[C@@H](Cc2c[nH]c3ccccc23)NC(=O)[C@H](Cc2ccccc2)NC(=O)[C@@H]2C[C@@H](O)CN2C(=O)[C@H](Cc2ccccc2)NC1=O` (cyclo(F[Hyp]F[dW]KT)) the same measures were > 1000 nM, > 1000 nM, > 1000 nM, 200 nM and 0.2 nM.
`NCCCC[C@@H]1NC(=O)[C@@H](Cc2c[nH]c3ccccc23)NC(=O)[C@H](Cc2ccccc2)NC(=O)[C@@H]2C[C@@H](O)CN2C(=O)[C@H](Cc2ccccc2)NC(=O)[C@H](Cc2ccc(OCc3ccccc3)cc2)NC1=O` (cyclo(F[Hyp]F[dW]KY(Bn))): the Ki is 316 nM in test [1]; 0.316 nM in test [2]; 63.1 nM in test [3]; 1.58 nM in test [4]; 0.794 nM in test [5].
Turning to `NCCCC[C@@H]1NC(=O)[C@@H](Cc2c[nH]c3ccccc23)NC(=O)[C@H](c2ccccc2)NC(=O)[C@@H]2C[C@@H](OC(=O)NCCN)CN2C(=O)[C@H](Cc2ccccc2)NC(=O)[C@H](Cc2ccc(OCc3ccccc3)cc2)NC1=O` [PASIREOTIDE] (cyclo(F[Hyp]([CO-Ethylenediamine])[Phg][dW]KY(Bn))), the IC50 in test [6] amounted to 0.4 nM. Moreover, in test [1], the Log Ki is > -7. The Ki in test [2] is 0.126 nM; in test [3] it was 6.31 nM; in test [4] it was 0.794 nM; in test [5], 1 nM.
